The source made the active and inactive calls. How the calls were made is not given here.
Test system: CCRIS mutagenicity, Ames/micronucleus/aberration tests
Assay: CCRIS mutagenicity studies
[1] = Test System: AMES SALMONELLA TYPHIMURIUM, Strain/Indicator: TA98, Metabolic Activation: NONE, Method: PREINCUBATION
[2] = Test System: AMES SALMONELLA TYPHIMURIUM, Strain/Indicator: TA100, Metabolic Activation: NONE, Method: PREINCUBATION
[3] = Test System: AMES SALMONELLA TYPHIMURIUM, Strain/Indicator: TA98, Metabolic Activation: NONE, Method: STANDARD PLATE
[4] = Test System: AMES SALMONELLA TYPHIMURIUM, Strain/Indicator: TA98, Metabolic Activation: S-9, Method: STANDARD PLATE
[5] = Test System: AMES SALMONELLA TYPHIMURIUM, Strain/Indicator: TA100, Metabolic Activation: NONE, Method: STANDARD PLATE
[6] = Test System: AMES SALMONELLA TYPHIMURIUM, Strain/Indicator: TA100, Metabolic Activation: S-9, Method: STANDARD PLATE
[7] = Test System: AMES SALMONELLA TYPHIMURIUM, Strain/Indicator: TA1537, Metabolic Activation: S-9, Method: STANDARD PLATE
[8] = Test System: AMES SALMONELLA TYPHIMURIUM, Strain/Indicator: TA97A, Metabolic Activation: NONE, Method: STANDARD PLATE

O=[N+]([O-])c1ccc2c(c1)oc1ccc([N+](=O)[O-])cc12
mutagenic call (Test System: AMES SALMONELLA TYPHIMURIUM, Strain/Indicator: TA98(1,8-DNP6), Metabolic Activation: NONE, Method: PREINCUBATION): active; positive | mutagenic call (Test System: AMES SALMONELLA TYPHIMURIUM, Strain/Indicator: TA98(1,8-DNP6), Metabolic Activation: NONE, Method: SUSPENSION): active; positive | mutagenic call (Test System: AMES SALMONELLA TYPHIMURIUM, Strain/Indicator: TA98(1,8-DNP6), Metabolic Activation: RAT, LIVER, S-9, PCB (5%), Method: PREINCUBATION): active; positive | mutagenic call (Test System: AMES SALMONELLA TYPHIMURIUM, Strain/Indicator: TA98(NR), Metabolic Activation: NONE, Method: PREINCUBATION): inactive; negative | mutagenic call (Test System: AMES SALMONELLA TYPHIMURIUM, Strain/Indicator: TA98(NR), Metabolic Activation: NONE, Method: SUSPENSION): inactive; negative | mutagenic call (Test System: AMES SALMONELLA TYPHIMURIUM, Strain/Indicator: TA98(NR), Metabolic Activation: RAT, LIVER, S-9 (10%), Method: PREINCUBATION): active; positive | mutagenic call (Test System: AMES SALMONELLA TYPHIMURIUM, Strain/Indicator: TA98(NR), Metabolic Activation: RAT, LIVER, S-9, 3-METHYLCHOLANTHRENE (10%), Method: PREINCUBATION): active; positive | mutagenic call (Test System: AMES SALMONELLA TYPHIMURIUM, Strain/Indicator: TA98(NR), Metabolic Activation: RAT, LIVER, S-9, BETA-NAPHTHOFLAVONE (10%), Method: PREINCUBATION): active; positive | mutagenic call (Test System: AMES SALMONELLA TYPHIMURIUM, Strain/Indicator: TA98(NR), Metabolic Activation: RAT, LIVER, S-9, PCB (5 OR 10%), Method: PREINCUBATION): active; positive | mutagenic call (Test System: AMES SALMONELLA TYPHIMURIUM, Strain/Indicator: TA98(NR), Metabolic Activation: RAT, LIVER, S-9, PHENOBARBITAL (10%), Method: PREINCUBATION): active; positive | mutagenic call [1]: active; positive | mutagenic call (Test System: AMES SALMONELLA TYPHIMURIUM, Strain/Indicator: TA98, Metabolic Activation: NONE, Method: SUSPENSION): active; positive | mutagenic call (Test System: AMES SALMONELLA TYPHIMURIUM, Strain/Indicator: TA98, Metabolic Activation: RAT, LIVER, S-9, PCB (5%), Method: PREINCUBATION): active; positive | mutagenic call (Test System: AMES SALMONELLA TYPHIMURIUM, Strain/Indicator: TA98, Metabolic Activation: RAT, LIVER, S-9, PCB, Method: SUSPENSION): active; positive | mutagenic call [2]: inactive; negative | mutagenic call (Test System: AMES SALMONELLA TYPHIMURIUM, Strain/Indicator: TA100, Metabolic Activation: NONE, Method: SUSPENSION): inactive; negative | mutagenic call (Test System: AMES SALMONELLA TYPHIMURIUM, Strain/Indicator: TA100, Metabolic Activation: RAT, LIVER, S-9, PCB (5%), Method: PREINCUBATION): inactive; negative | mutagenic call (Test System: AMES SALMONELLA TYPHIMURIUM, Strain/Indicator: TA100, Metabolic Activation: RAT, LIVER, S-9, PCB, Method: SUSPENSION): active; positive

CC[C@]1(O)CC2CN(CCc3c([nH]c4ccccc34)[C@@](C(=O)OC)(c3cc4c(cc3OC)N(C=O)[C@H]3[C@@](O)(C(=O)OC)[C@H](OC(C)=O)[C@]5(CC)C=CCN6CC[C@]43[C@@H]65)C2)C1 (stereo partly drawn)
mutagenic call (End Point: In vitro micronucleus, Test System: Human lymphoblastoid TK6 cells, Metabolic Activation: None): active; positive (p<0.001) | mutagenic call (End Point: In vivo micronucleus, Test System: Peripheral blood lymphocytes, Species: Human, Strain/Sex: Workers (6 males and 9 females) and matched controls, Route: Occupational): active; positive, both mean micronuclei rate and mean micronucleated cells rate signific | mutagenic call [1]: inactive; negative | mutagenic call [3]: inactive; negative | mutagenic call (Test System: AMES SALMONELLA TYPHIMURIUM, Strain/Indicator: TA98, Metabolic Activation: S-9, Method: PREINCUBATION): inactive; negative | mutagenic call [4]: inactive; negative | mutagenic call [2]: inactive; negative | mutagenic call [5]: inactive; negative | mutagenic call (Test System: AMES SALMONELLA TYPHIMURIUM, Strain/Indicator: TA100, Metabolic Activation: S-9, Method: PREINCUBATION): inactive; negative | mutagenic call [6]: inactive; negative | mutagenic call [7]: inactive; negative | mutagenic call (Test System: CHINESE HAMSTER V-79, Strain/Indicator: V-79 (HGPRT)/6-THIOGUANINE, Metabolic Activation: NONE): inactive; negative | mutagenic call (Test System: CHINESE HAMSTER V-79, Strain/Indicator: V-79/6-THIOGUANINE, Metabolic Activation: NONE, Method: SUSPENSION/PLATE): inactive; negative | mutagenic call (Test System: CHINESE HAMSTER V-79, Strain/Indicator: V-79/6-THIOGUANINE, Metabolic Activation: RAT, LIVER, HEPATOCYTES, Method: SUSPENSION/PLATE): inactive; negative | mutagenic call (Test System: E. COLI, Strain/Indicator: WP2 (HCR), Metabolic Activation: NONE, Method: STANDARD PLATE): inactive; negative | mutagenic call (Test System: E. COLI, Strain/Indicator: WP2 (HCR), Metabolic Activation: S-9, Method: STANDARD PLATE): inactive; negative | mutagenic call (Test System: MOUSE LYMPHOMA, Strain/Indicator: L5178Y (TK+/TK-), Metabolic Activation: NONE): active; positive

CCCCC[C@@](C)(O)/C=C/[C@H]1[C@H](O)CC(=O)[C@@H]1C/C=C\CCCC(=O)O
mutagenic call [3]: inactive; negative | mutagenic call [4]: inactive; negative | mutagenic call [5]: inactive; negative | mutagenic call [6]: inactive; negative | mutagenic call (Test System: AMES SALMONELLA TYPHIMURIUM, Strain/Indicator: TA1535, Metabolic Activation: NONE, Method: STANDARD PLATE): inactive; negative | mutagenic call (Test System: AMES SALMONELLA TYPHIMURIUM, Strain/Indicator: TA1535, Metabolic Activation: S-9, Method: STANDARD PLATE): inactive; negative | mutagenic call (Test System: AMES SALMONELLA TYPHIMURIUM, Strain/Indicator: TA1537, Metabolic Activation: NONE, Method: STANDARD PLATE): inactive; negative | mutagenic call [7]: inactive; negative | mutagenic call (Test System: AMES SALMONELLA TYPHIMURIUM, Strain/Indicator: TA1538, Metabolic Activation: NONE, Method: STANDARD PLATE): inactive; negative | mutagenic call (Test System: AMES SALMONELLA TYPHIMURIUM, Strain/Indicator: TA1538, Metabolic Activation: S-9, Method: STANDARD PLATE): inactive; negative | mutagenic call (Test System: E. COLI, Strain/Indicator: WP2 UVRA, Metabolic Activation: NONE, Method: STANDARD PLATE): inactive; negative | mutagenic call (Test System: E. COLI, Strain/Indicator: WP2 UVRA, Metabolic Activation: S-9, Method: STANDARD PLATE): inactive; negative

Cc1ccc(/C(C#N)=C\C=C\c2ccccc2[N+](=O)[O-])cc1
mutagenic call [8]: active; positive

CCCCOCC(=O)O
mutagenic call [8]: inactive; negative | mutagenic call (Test System: AMES SALMONELLA TYPHIMURIUM, Strain/Indicator: TA97A, Metabolic Activation: RAT, LIVER, S-9, AROCLOR 1254, Method: STANDARD PLATE): inactive; negative | mutagenic call [3]: inactive; negative | mutagenic call (Test System: AMES SALMONELLA TYPHIMURIUM, Strain/Indicator: TA98, Metabolic Activation: RAT, LIVER, S-9, AROCLOR 1254, Method: STANDARD PLATE): inactive; negative | mutagenic call [5]: inactive; negative | mutagenic call (Test System: AMES SALMONELLA TYPHIMURIUM, Strain/Indicator: TA100, Metabolic Activation: RAT, LIVER, S-9, AROCLOR 1254, Method: STANDARD PLATE): inactive; negative | mutagenic call (Test System: AMES SALMONELLA TYPHIMURIUM, Strain/Indicator: TA102, Metabolic Activation: NONE, Method: STANDARD PLATE): inactive; negative | mutagenic call (Test System: AMES SALMONELLA TYPHIMURIUM, Strain/Indicator: TA102, Metabolic Activation: RAT, LIVER, S-9, AROCLOR 1254, Method: STANDARD PLATE): inactive; negative

CC(=O)OCc1c2ccccc2cc2ccccc12
mutagenic call [3]: active; positive | mutagenic call [5]: active; positive

— PubChem BioAssay AID1259407 (Chemical Carcinogenesis Research Information System (CCRIS), 2018)
